For data set [1], the system named is SARS-CoV-2 Everett strain. The data set is described as follows: protection of Calu-3 cells from SARS-CoV-2 Everett strain-induced cytotoxicity (CellTiter Glo 2.0). Particulars: read-out: IC50, protection of Calu-3 cells from SARS2-induced cytotoxicity.
Data set [2] has as its system SARS-CoV-2 Toronto strain. The data set is described as follows: cytopathic effect screening assay, SARS-CoV-2 Toronto strain in Vero E6 cells. It counts as cell-based. Particulars: Severe acute respiratory syndrome coronavirus 2, Vero C1008; Vero E6 cells mixed with virus; CBD 20 nM to 10 μM; cell viability after 72 hours; FIG. 1; read-out: EC50, inhibition of cell death of virally-infected cells. For orientation: Protection from cytopathic effect is a common read-out in antiviral testing.

The test system of another data set is Vero E6 cells. Particulars: Vero E6 cultures not exposed to virus; 20 nM to 10 μM; 72 hours.
The test system of the next data set is SARS-CoV-2. To be noted: reported by Nguyen et al., March 2021; cited from earlier work.
The mark [3] stands for this setting: Severe acute respiratory syndrome coronavirus 2, Calu-3, 96 h.

The values below come from US20230270763A1, “METHOD OF TREATING C[…] CANNABINOIDS AND DERIVATIVES” (PASCAL BIOSCIENCES INC., priority 2020, published 2023).

Read-outs that look alike come from different tables or passages of the source.

Usually IC50 stands for the concentration needed to halve the response being measured. For `CCCCCc1cc(O)c(C/C=C(\C)CCC=C(C)C)c(O)c1` [cannabigerol, Cannabigerol], in data set [1] (Calu-3, 96 hours, MOI 0.5 to 2.0, three-fold dilutions from 10 μM), the IC50 was found to be 120 nM.
Usually EC50 stands for the concentration giving half of the maximal effect. With `C=C(C)[C@@H]1CCC(C)=C[C@H]1c1c(O)cc(CCCCC)cc1O` [CBD, (−)-Cannabidiol], in data set [2], the half-maximal effective concentration (EC50) is 8500 nM. Also, the “cytotoxicity over the concentration range tested” value in the data set with Vero E6 cells is on record as “No cytotoxicity”. Further, the “effect on SARS-CoV-2 replication” value in the data set on SARS-CoV-2 was “inhibits SARS-CoV-2 replication”. In addition, in data set [1] (setting [3]), the concentration for half-maximal inhibition (IC50) was 120 nM.
Regarding `C=C(C)[C@@H]1CCC(C)=C[C@H]1c1c(O)cc(CCC)cc1O` [cannabidivarin, (−)-Cannabidivarin], the concentration for half-maximal inhibition (IC50) in data set [1] (setting [3]) came out at 43 nM.
